Columns and labels:
[1] = biological target: T1, human recombinant ETA receptors (Homo sapiens, UniProt P25101); test: Inhibition of [125I]ET-1 binding to membranes from CHO cells carrying human ETA receptors
T1 construct: expressed in transfected cells; host or cells: CHO cells (microsomal membranes)
T1 sequence (P25101 21-427): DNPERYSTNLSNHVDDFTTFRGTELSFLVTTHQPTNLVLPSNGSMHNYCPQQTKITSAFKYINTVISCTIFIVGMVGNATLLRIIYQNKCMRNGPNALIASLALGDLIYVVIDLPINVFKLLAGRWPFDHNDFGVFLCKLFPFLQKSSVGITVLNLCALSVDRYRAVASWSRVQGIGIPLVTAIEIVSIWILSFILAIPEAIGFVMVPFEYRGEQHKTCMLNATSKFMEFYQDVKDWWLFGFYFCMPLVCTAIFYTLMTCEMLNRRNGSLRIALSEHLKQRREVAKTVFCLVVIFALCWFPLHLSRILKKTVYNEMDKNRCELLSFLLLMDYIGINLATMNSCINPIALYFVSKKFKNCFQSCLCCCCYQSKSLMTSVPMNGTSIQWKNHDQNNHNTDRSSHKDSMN
Description: (§1) 1) Inhibition of Endothelin Binding to Membranes from CHO Cells Carrying Human ET Receptors:
(§2) For competition binding studies, membranes of CHO cells expressing human recombinant ETA or ETB receptors were used.
(§3) The assay was performed in 200 uL 50 mM Tris/HCl buffer, pH 7.4, including 25 mM MnCl2, 1 mM EDTA and 0.5% (w/v) BSA in polypropylene microtiter plates. […] After 2 h, the membranes were filtered on filterplates containing GF/C filters (Unifilterplates from Canberra Packard S.A. Zürich, Switzerland). To each well, 50 uL of scintillation cocktail was added (MicroScint 20, Canberra Packard S.A. Zürich, Switzerland) and the filter plates counted in a microplate counter (TopCount, Canberra Packard S.A. Zürich, Switzerland).
(§4) All the test compounds were dissolved, diluted and added in DMSO.

[2] = biological target: T2, human recombinant ETB receptors (Homo sapiens, UniProt P24530); test: Inhibition of [125I]ET-1 binding to membranes from CHO cells carrying human ETB receptors
T2 construct: expressed in transfected cells; host or cells: CHO cells (microsomal membranes)
T2 sequence (P24530 27-442): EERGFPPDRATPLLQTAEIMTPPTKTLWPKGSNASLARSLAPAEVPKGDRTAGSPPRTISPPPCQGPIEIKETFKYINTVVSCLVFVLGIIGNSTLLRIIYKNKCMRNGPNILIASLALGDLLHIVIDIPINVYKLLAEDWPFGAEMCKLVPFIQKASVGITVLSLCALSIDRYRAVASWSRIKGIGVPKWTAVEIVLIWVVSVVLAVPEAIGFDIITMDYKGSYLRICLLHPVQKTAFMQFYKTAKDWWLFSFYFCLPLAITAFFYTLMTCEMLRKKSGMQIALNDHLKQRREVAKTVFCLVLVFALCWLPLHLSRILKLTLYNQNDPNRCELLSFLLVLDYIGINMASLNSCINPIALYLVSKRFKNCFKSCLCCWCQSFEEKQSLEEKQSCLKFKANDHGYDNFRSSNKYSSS
Description: as §1, §2, §3, §4
Note: 2.5% DMSO.

Compound: CCCCS(=O)(=O)Nc1ncnc(OCCOc2ncc(Br)cn2)c1-c1ccc(Br)cc1 [Example 81]
- IC50 [1]: 0.54 nM

Compound: CCCS(=O)(=O)Nc1ncnc(OCCOc2ncc(Br)cn2)c1-c1ccc(Br)cc1 [Example 70]
- IC50 [1]: 0.46 nM

Compound: CCS(=O)(=O)Nc1ncnc(OCCOc2ncc(OC)cn2)c1Oc1ccccc1OC [Example 41]
- IC50 [1]: 28 nM
- IC50 [2]: 678 nM

Compound: CCCCS(=O)(=O)Nc1ncnc(OCCOc2ncc(Br)cn2)c1-c1ccc(C)cc1 [Example 74]
- IC50 [1]: 0.63 nM
- IC50 [2]: > 1000 nM

Compound: CCCS(=O)(=O)Nc1nc(-c2ncccn2)nc(OCCOc2ncc(Br)cn2)c1Oc1ccccc1OC [Example 8]
- IC50 [1]: 11 nM

Compound: CCCS(=O)(=O)Nc1ncnc(OCCOc2ncc(OC)cn2)c1Oc1ccccc1OC [Example 33]
- IC50 [1]: 40 nM
- IC50 [2]: > 1000 nM

Compound: CSc1cnc(OCCOc2ncnc(NS(C)(=O)=O)c2-c2ccc(Br)cc2)nc1 [Example 55]
- IC50 [1]: 1.3 nM
- IC50 [2]: 454 nM

Compound: CCS(=O)(=O)Nc1nc(-c2ncccn2)nc(OCCOc2ncc(OC)cn2)c1Oc1ccccc1OC [Example 12, ethanesulfonic acid [6-[2-(5-methoxy-pyrimidin-2-yloxy)-ethoxy]-5-(2-methoxy-phenoxy)-[2,2′]bipyrimidinyl-4-yl]-amide]
- IC50 [1]: 59 nM
- IC50 [2]: 469 nM

Compound: CCCS(=O)(=O)Nc1ncnc(OCCOc2ncc(Br)cn2)c1Oc1ccccc1OC [Example 32]
- IC50 [1]: 11 nM
- IC50 [2]: > 1000 nM

Compound: CCS(=O)(=O)Nc1ncnc(OCCOc2ncc(Br)cn2)c1Oc1ccccc1OC [Example 40]
- IC50 [1]: 19 nM
- IC50 [2]: 636 nM

Compound: CCCCS(=O)(=O)Nc1ncnc(OCCOc2ncc(SC)cn2)c1-c1ccc(Br)cc1 [Example 83]
- IC50 [1]: 0.49 nM
- IC50 [2]: 640 nM

Compound: CS(=O)(=O)Nc1ncnc(OCCOc2ncc(S(C)(=O)=O)cn2)c1-c1ccc(Br)cc1 [Example 56]
- IC50 [1]: 1.6 nM
- IC50 [2]: 359 nM

Compound: CCS(=O)(=O)Nc1nc(C2CC2)nc(OCCOc2ncc(OC)cn2)c1-c1ccc(C)cc1 [Example 63]
- IC50 [1]: 25 nM
- IC50 [2]: > 1000 nM

Compound: CCS(=O)(=O)Nc1ncnc(OCCOc2ncc(S(C)(=O)=O)cn2)c1-c1ccc(Cl)cc1 [Example 69]
- IC50 [1]: 1.2 nM
- IC50 [2]: 314 nM

Compound: CCS(=O)(=O)Nc1nc(C2CC2)nc(OCCOc2ncc(S(C)(=O)=O)cn2)c1-c1ccc(C)cc1 [Example 65]
- IC50 [1]: 1.4 nM
- IC50 [2]: > 1000 nM

Compound: CCS(=O)(=O)Nc1ncnc(OCCOc2ncc(OC)cn2)c1-c1ccc(Cl)cc1 [Example 67]
- IC50 [1]: 13 nM
- IC50 [2]: > 1000 nM

Compound: CCS(=O)(=O)Nc1ncnc(OCCOc2ncc(SC)cn2)c1Oc1ccccc1OC [Example 42]
- IC50 [1]: 5.7 nM
- IC50 [2]: 105 nM

Compound: CCS(=O)(=O)Nc1ncnc(OCCOc2ncc(SC)cn2)c1-c1ccc(Br)cc1 [Example 60]
- IC50 [1]: 0.8 nM
- IC50 [2]: 427 nM

Compound: CCCCS(=O)(=O)Nc1ncnc(OCCOc2ncc(OC)cn2)c1Oc1cccc(OC)c1 [Example 29]
- IC50 [1]: 8.4 nM
- IC50 [2]: 402 nM

Compound: CCS(=O)(=O)Nc1ncnc(OCCOc2ncc(Br)cn2)c1-c1ccc(Br)cc1 [Example 58]
- IC50 [1]: 0.66 nM
- IC50 [2]: 838 nM

Compound: COc1cnc(OCCOc2ncnc(NS(C)(=O)=O)c2Oc2ccccc2OC)nc1 [Example 18]
- IC50 [1]: 205 nM
- IC50 [2]: 841 nM

Compound: CCS(=O)(=O)Nc1nc(-c2ncccn2)nc(OCCOc2ncc(Br)cn2)c1Oc1ccccc1OC [Example 7, ethanesulfonic acid [6-[2-(5-bromo-pyrimidin-2-yloxy)-ethoxy]-5-(2-methoxy-phenoxy)-[2,2′]bipyrimidinyl-4-yl]-amide]
- IC50 [1]: 16.3 nM

Compound: COc1ccccc1Oc1c(NS(C)(=O)=O)ncnc1OCCOc1ncc(S(C)(=O)=O)cn1 [Example 20]
- IC50 [1]: 81 nM
- IC50 [2]: > 1000 nM

Compound: CCCCS(=O)(=O)Nc1nc(C2CC2)nc(OCCOc2ncc(Br)cn2)c1-c1ccc(C)cc1 [Example 77]
- IC50 [1]: 2.3 nM
- IC50 [2]: > 1000 nM

Compound: Cc1ccc(-c2c(NS(C)(=O)=O)ncnc2OCCCOc2ncc(Br)cn2)cc1 [Example 50]
- IC50 [1]: 397 nM
- IC50 [2]: > 1000 nM

Compound: CCCCS(=O)(=O)Nc1nc(-c2ncccn2)nc(OCCOc2ncc(Br)cn2)c1Oc1ccccc1OC [Example 25]
- IC50 [1]: 6.5 nM

Compound: COc1cnc(OCCOc2ncnc(NS(C)(=O)=O)c2-c2ccc(C)cc2)nc1 [Example 48]
- IC50 [1]: 23 nM
- IC50 [2]: > 1000 nM

Compound: CCCCS(=O)(=O)Nc1nc(C2CC2)nc(OCCOc2ncc(SC)cn2)c1-c1ccc(C)cc1 [Example 79]
- IC50 [1]: 2.1 nM
- IC50 [2]: > 1000 nM

Compound: CSc1cnc(OCCOc2ncnc(NS(C)(=O)=O)c2-c2ccc(C)cc2)nc1 [Example 49]
- IC50 [1]: 2.3 nM
- IC50 [2]: > 1000 nM

Compound: CCS(=O)(=O)Nc1ncnc(OCCOc2ncc(Br)cn2)c1-c1ccc(C)cc1 [Example 1, ethanesulfonic acid {6-[2-(5-bromo-pyrimidin-2-yloxy)-ethoxy]-5-p-tolyl-pyrimidin-4-yl}-amide]
- IC50 [1]: 3.96 nM
- IC50 [2]: > 1000 nM

Compound: CCCS(=O)(=O)Nc1nc(-c2ncccn2)nc(OCCOc2ncc(OC)cn2)c1Oc1ccccc1OC [Example 10, n-propanesulfonic acid [6-[2-(5-methoxy-pyrimidin-2-yloxy)-ethoxy]-5-(2-methoxy-phenoxy)-[2,2′]bipyrimidinyl-4-yl]-amide]
- IC50 [1]: 42.6 nM
- IC50 [2]: 689 nM

Compound: COc1ccccc1Oc1c(NS(C)(=O)=O)nc(-c2ncccn2)nc1OCCOc1ncc(Br)cn1 [Example 14]
- IC50 [1]: 27 nM

Compound: CCCCS(=O)(=O)Nc1nc(C2CC2)nc(OCCOc2ncc(OC)cn2)c1-c1ccc(C)cc1 [Example 78]
- IC50 [1]: 10 nM
- IC50 [2]: > 1000 nM

Compound: CCCS(=O)(=O)Nc1ncnc(OCCOc2ncc(Br)cn2)c1-c1ccc(C)cc1 [Example 4, n-propanesulfonic acid {6-[2-(5-bromo-pyrimidin-2-yloxy)-ethoxy]-5-p-tolyl-pyrimidin-4-yl}-amide]
- IC50 [1]: 6.34 nM
- IC50 [2]: > 1000 nM

Compound: COc1ccccc1Oc1c(NS(C)(=O)=O)ncnc1OCCOc1ncc(Br)cn1 [Example 17]
- IC50 [1]: 33 nM
- IC50 [2]: 599 nM

Compound: CCS(=O)(=O)Nc1ncnc(OCCOc2ncc(SC)cn2)c1-c1ccc(C)cc1 [Example 2, ethanesulfonic acid {6-[2-(5-methylsulfanyl-pyrimidin-2-yloxy)-ethoxy]-5-p-tolyl-pyrimidin-4-yl}-amide]
- IC50 [1]: 5.99 nM
- IC50 [2]: 989 nM

Compound: COc1cnc(OCCOc2nc(-c3ncccn3)nc(NS(C)(=O)=O)c2Oc2ccccc2OC)nc1 [Example 15]
- IC50 [1]: 125 nM
- IC50 [2]: 729 nM

Compound: CCCCS(=O)(=O)Nc1ncnc(OCCOc2ncc(SC)cn2)c1-c1ccc(C)cc1 [Example 76]
- IC50 [1]: 1.1 nM
- IC50 [2]: > 1000 nM

Compound: CCCS(=O)(=O)Nc1ncnc(OCCOc2ncc(OC)cn2)c1-c1ccc(C)cc1 [Example 6, propane-1-sulfonic acid {6-[2-(5-methoxy-pyrimidin-2-yloxy)-ethoxy]-5-p-tolyl-pyrimidin-4-yl}-amide]
- IC50 [1]: 17.1 nM
- IC50 [2]: > 1000 nM

Compound: CCCCS(=O)(=O)Nc1nc(-c2ncccn2)nc(OCCOc2ncc(OC)cn2)c1Oc1ccccc1OC [Example 26]
- IC50 [1]: 19 nM
- IC50 [2]: 881 nM

Compound: CCS(=O)(=O)Nc1nc(C2CC2)nc(OCCOc2ncc(Br)cn2)c1-c1ccc(C)cc1 [Example 62]
- IC50 [1]: 5.5 nM
- IC50 [2]: > 1000 nM

— patent US7323465B2, “Alkansulfonamides as endothelin antagonists” (Actelion Pharmaceuticals Ltd., priority 2002, dated 2008)
